Measured values as given in PubChem BioAssay AID248 (DTP/NCI, 2004).
“And” between values parts separate entries of the source, which are not always exact repeats. Equal values may be shown once. Toxic doses and inconclusive results are not listed. No stated cut-off is given here; in the data, active means T/C of 150% or more; inactive means T/C below 125%.

System: L1210 leukemia ip in BDF1 mice, survival T/C
Test: NCI In Vivo Anticancer Drug Screen. Data for tumor model L1210 Leukemia (intraperitoneal) in B6D2F1 (BDF1) mice
Conditions: endpoint: mean survival time, higher = longer survival
Summary of the method: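 Value reflects the ratio of survival in compound-treated mice to survival in vehicle-treated controls, with both groups carrying the same transplanted tumor.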

[1] = dose: 100.0 mg/kg/injection, schedule: Q04DX002 (ip), vehicle: saline with Tween-80
[2] = dose: 200.0 mg/kg/injection, schedule: Q04DX002 (ip), vehicle: saline with Tween-80
[3] = dose: 100.0 mg/kg/injection, schedule: Q01DX009 (ip), vehicle: Klucel (hydroxypropylcellulose) (HPC)
[4] = dose: 100.0 mg/kg/injection, schedule: Q04DX003 (ip), vehicle: Klucel (hydroxypropylcellulose) (HPC)
[5] = dose: 200.0 mg/kg/injection, schedule: Q01DX009 (ip), vehicle: Klucel (hydroxypropylcellulose) (HPC)
[6] = dose: 200.0 mg/kg/injection, schedule: Q04DX003 (ip), vehicle: Klucel (hydroxypropylcellulose) (HPC)
[7] = dose: 400.0 mg/kg/injection, schedule: Q04DX003 (ip), vehicle: Klucel (hydroxypropylcellulose) (HPC)
[8] = dose: 100.0 mg/kg/injection, schedule: Q04DX003 (ip), vehicle: saline with Tween-80
[9] = dose: 200.0 mg/kg/injection, schedule: Q04DX003 (ip), vehicle: saline with Tween-80
[10] = dose: 400.0 mg/kg/injection, schedule: Q04DX003 (ip), vehicle: saline with Tween-80
[11] = dose: 50.0 mg/kg/injection, schedule: Q01DX001 (ip), vehicle: carboxymethylcellulose (CMC)
[12] = dose: 100.0 mg/kg/injection, schedule: Q01DX001 (ip), vehicle: carboxymethylcellulose (CMC)
[13] = dose: 200.0 mg/kg/injection, schedule: Q01DX001 (ip), vehicle: carboxymethylcellulose (CMC)
[14] = dose: 100.0 mg/kg/injection, schedule: Q01DX001 (ip), vehicle: Klucel (hydroxypropylcellulose) (HPC)
[15] = dose: 200.0 mg/kg/injection, schedule: Q01DX001 (ip), vehicle: Klucel (hydroxypropylcellulose) (HPC)
[16] = dose: 400.0 mg/kg/injection, schedule: Q01DX009 (ip), vehicle: Klucel (hydroxypropylcellulose) (HPC)
[17] = dose: 100.0 mg/kg/injection, schedule: Q01DX001 (ip), vehicle: saline
[18] = dose: 200.0 mg/kg/injection, schedule: Q01DX001 (ip), vehicle: saline
[19] = dose: 400.0 mg/kg/injection, schedule: Q01DX001 (ip), vehicle: saline

Measured: T/C

N#CC[CH2][Sn]([CH2]CC#N)([CH2]CC#N)[CH2]CC#N
inactive: [1] 100 % of control | [2] 96 % of control | dose: 400.0 mg/kg/injection, schedule: Q04DX002 (ip), vehicle: saline with Tween-80 96 % of control

C=C(C)COc1c(C)c(C)c(OCC(=C)C)c(C)c1C
inactive: dose: 100.0 mg/kg/injection, schedule: Q01DX001 (ip), vehicle: DMSO 89 % of control | dose: 400.0 mg/kg/injection, schedule: Q01DX001 (ip), vehicle: DMSO 94 % of control

ClCC(Br)CBr (stereo not drawn)
inactive: dose: 75.0 mg/kg/injection, schedule: Q01DX001 (ip), vehicle: saline 106 % of control | dose: 150.0 mg/kg/injection, schedule: Q01DX001 (ip), vehicle: saline 104 % of control

CCCN=Cc1ccccc1O.CCCN=Cc1ccccc1O.[Cu]
inactive: dose: 9.5 mg/kg/injection, schedule: Q01DX001 (ip), vehicle: other 94 % of control | dose: 19.0 mg/kg/injection, schedule: Q01DX001 (ip), vehicle: other 100 % of control | dose: 38.0 mg/kg/injection, schedule: Q01DX001 (ip), vehicle: other 97 % of control

CCCOc1ccc(C=Nc2ccc(C)cc2)cc1
inactive: [3] 98 % of control | [4] 109 % of control | [5] 116 % of control | [6] 101 % of control | [7] 117 % of control

CCOC(=O)NCCc1ccc(OC)c(OC)c1
inactive: dose: 100.0 mg/kg/injection, schedule: Q01DX009 (ip), vehicle: saline with Tween-80 92 % of control | [8] 97 % of control | dose: 200.0 mg/kg/injection, schedule: Q01DX009 (ip), vehicle: saline with Tween-80 91 % of control | [9] 112 % of control | dose: 400.0 mg/kg/injection, schedule: Q01DX009 (ip), vehicle: saline with Tween-80 96 % of control | [10] 102 % of control

CC(C)NC(=O)Nc1cccc(Cl)c1
inactive: dose: 100.0 mg/kg/injection, schedule: Q04DX003 (ip), vehicle: gum acacia 96 % of control | dose: 200.0 mg/kg/injection, schedule: Q04DX003 (ip), vehicle: gum acacia 94 % of control | dose: 400.0 mg/kg/injection, schedule: Q04DX003 (ip), vehicle: gum acacia 100 % of control

COc1ccc(-c2cc(Cl)c([N+](=O)[O-])cc2[N+](=O)[O-])cc1
inactive: [11] 100 % of control | [12] 107 % of control | [13] 110 % of control | dose: 400.0 mg/kg/injection, schedule: Q01DX001 (ip), vehicle: carboxymethylcellulose (CMC) 102 % of control

O=C(Nc1ccc(F)cc1)OCCc1ccccn1
inactive: [14] 96 % of control | [3] 98 % of control and 101 % of control | dose: 100.0 mg/kg/injection, schedule: Q04DX002 (ip), vehicle: Klucel (hydroxypropylcellulose) (HPC) 94 % of control and 99 % of control | [4] 113 % of control | [15] 101 % of control | [5] 101 % of control and 106 % of control | dose: 200.0 mg/kg/injection, schedule: Q04DX002 (ip), vehicle: Klucel (hydroxypropylcellulose) (HPC) 94 % of control and 96 % of control | [6] 96 % of control | dose: 400.0 mg/kg/injection, schedule: Q01DX001 (ip), vehicle: Klucel (hydroxypropylcellulose) (HPC) 91 % of control | [16] 94 % of control and 91 % of control | dose: 400.0 mg/kg/injection, schedule: Q04DX002 (ip), vehicle: Klucel (hydroxypropylcellulose) (HPC) 97 % of control and 105 % of control | [7] 99 % of control

O=c1[nH]c(=S)[nH]c(=S)[nH]1
inactive: dose: 100.0 mg/kg/injection, schedule: Q01DX Z (ip), vehicle: methylcellulose (MC) 97 % of control | dose: 200.0 mg/kg/injection, schedule: Q01DX Z (ip), vehicle: methylcellulose (MC) 104 % of control

O=C1Nc2ccccc2C1=NC1CCCC1
inactive: [17] 93 % of control | [18] 98 % of control | [19] 97 % of control

NNS(=O)(=O)c1ccccc1
inactive: dose: 25.0 mg/kg/injection, schedule: Q04DX003 (ip), vehicle: saline 101 % of control | [11] 101 % of control | dose: 50.0 mg/kg/injection, schedule: Q04DX003 (ip), vehicle: saline 101 % of control | [12] 92 % of control | dose: 100.0 mg/kg/injection, schedule: Q04DX003 (ip), vehicle: saline 103 % of control

Clc1ccc(C[P+](c2ccccc2)(c2ccccc2)c2ccccc2)cc1Cl
inactive: dose: 0.62 mg/kg/injection, schedule: Q01DX009 (ip), vehicle: acetone 98 % of control | dose: 1.25 mg/kg/injection, schedule: Q01DX009 (ip), vehicle: acetone 101 % of control | dose: 2.5 mg/kg/injection, schedule: Q01DX009 (ip), vehicle: acetone 101 % of control | dose: 2.5 mg/kg/injection, schedule: Q04DX003 (ip), vehicle: acetone 94 % of control | dose: 3.6 mg/kg/injection, schedule: Q01DX009 (ip), vehicle: saline with Tween-80 97 % of control | dose: 5.0 mg/kg/injection, schedule: Q01DX001 (ip), vehicle: acetone 90 % of control | dose: 5.6 mg/kg/injection, schedule: Q01DX009 (ip), vehicle: saline with Tween-80 106 % of control | dose: 8.4 mg/kg/injection, schedule: Q01DX009 (ip), vehicle: saline with Tween-80 102 % of control | dose: 10.0 mg/kg/injection, schedule: Q01DX001 (ip), vehicle: acetone 97 % of control

O=C(CCN1CCC(c2ccccc2)CC1)c1ccc(F)cc1
inactive: [12] 106 % of control | [13] 93 % of control

CC([NH-])C(C)[NH-].[Cl][Pd][Cl] (stereo not drawn)
inactive: dose: 12.5 mg/kg/injection, schedule: Q04DX002 (ip), vehicle: Klucel (hydroxypropylcellulose) (HPC) 97 % of control | dose: 25.0 mg/kg/injection, schedule: Q04DX002 (ip), vehicle: Klucel (hydroxypropylcellulose) (HPC) 97 % of control | dose: 50.0 mg/kg/injection, schedule: Q04DX002 (ip), vehicle: Klucel (hydroxypropylcellulose) (HPC) 93 % of control | dose: 50.0 mg/kg/injection, schedule: Q04DX002 (ip), vehicle: saline with Tween-80 93 % of control | [1] 90 % of control | [2] 97 % of control

ClC1(Cl)C2CC3C4C=CC(C4)C3C21 (stereo not drawn)
inactive: [14] 108 % of control | [15] 100 % of control

CCOC(C)C(/C=N/Nc1ccccc1)=N\Nc1ccccc1 (stereo not drawn)
inactive: dose: 15.0 mg/kg/injection, schedule: Q01DX Z (ip), vehicle: carboxymethylcellulose (CMC) 98 % of control | dose: 30.0 mg/kg/injection, schedule: Q01DX Z (ip), vehicle: carboxymethylcellulose (CMC) 97 % of control | dose: 60.0 mg/kg/injection, schedule: Q01DX Z (ip), vehicle: carboxymethylcellulose (CMC) 97 % of control | dose: 120.0 mg/kg/injection, schedule: Q01DX Z (ip), vehicle: carboxymethylcellulose (CMC) 92 % of control

O=c1[nH]cc(CCOCc2ccccc2)c(=O)[nH]1
inactive: [17] 103 % of control | [18] 94 % of control | [19] 103 % of control

COc1ccc(OCC(=O)O)cc1
inactive: [8] 102 % of control | [9] 107 % of control | [10] 107 % of control

O=C(O)c1ccc(OCCOc2ccccc2)cc1
inactive: dose: 100.0 mg/kg/injection, schedule: Q01DX009 (ip), vehicle: saline sonified 90 % of control | dose: 200.0 mg/kg/injection, schedule: Q01DX009 (ip), vehicle: saline sonified 95 % of control | dose: 200.0 mg/kg/injection, schedule: Q04DX003 (ip), vehicle: saline sonified 100 % of control | dose: 400.0 mg/kg/injection, schedule: Q01DX009 (ip), vehicle: saline sonified 93 % of control | dose: 400.0 mg/kg/injection, schedule: Q04DX003 (ip), vehicle: saline sonified 108 % of control

CN(C)/C=C/C(=O)c1ccccc1[N+](=O)[O-]
inactive: [3] 97 % of control | [4] 100 % of control | [5] 100 % of control | [6] 105 % of control | [16] 103 % of control | [7] 100 % of control

CCCCCCCC[Si](Br)(CCCCCCCC)CCCCCCCC
inactive: dose: 75.0 mg/kg/injection, schedule: Q01DX001 (ip), vehicle: acetone 98 % of control | dose: 150.0 mg/kg/injection, schedule: Q01DX001 (ip), vehicle: acetone 93 % of control | dose: 300.0 mg/kg/injection, schedule: Q01DX001 (ip), vehicle: acetone 96 % of control
